Laboratory results: PubChem BioAssay AID1259407 (Chemical Carcinogenesis Research Information System (CCRIS), 2018)
Active and inactive are the calls of the source. No rule for the calls is given here.

System: CCRIS mutagenicity, Ames/micronucleus/aberration tests
Experiment: CCRIS mutagenicity studies
[1] = Test System: AMES SALMONELLA TYPHIMURIUM, Strain/Indicator: TA1535, Metabolic Activation: NONE, Method: STANDARD PLATE
[2] = Test System: AMES SALMONELLA TYPHIMURIUM, Strain/Indicator: TA98, Metabolic Activation: NONE, Method: STANDARD PLATE
[3] = Test System: AMES SALMONELLA TYPHIMURIUM, Strain/Indicator: TA98, Metabolic Activation: RAT, LIVER, S-9, AROCLOR 1254, Method: STANDARD PLATE
[4] = Test System: AMES SALMONELLA TYPHIMURIUM, Strain/Indicator: TA100, Metabolic Activation: NONE, Method: STANDARD PLATE
[5] = Test System: AMES SALMONELLA TYPHIMURIUM, Strain/Indicator: TA100, Metabolic Activation: RAT, LIVER, S-9, AROCLOR 1254, Method: STANDARD PLATE
[6] = Test System: AMES SALMONELLA TYPHIMURIUM, Strain/Indicator: TA1537, Metabolic Activation: NONE, Method: STANDARD PLATE

[N-]=[N+]=NCCO
mutagenic call [1]: active; positive

Nc1ccc2ccc3cc4ccccc4c4ccc1c2c34
mutagenic call (Test System: AMES SALMONELLA TYPHIMURIUM, Strain/Indicator: TA98(1,8-DNP6), Metabolic Activation: NONE): active; positive
mutagenic call (Test System: AMES SALMONELLA TYPHIMURIUM, Strain/Indicator: TA98(1,8-DNP6), Metabolic Activation: RAT, LIVER, S-9, AROCLOR 1254): active; positive
mutagenic call (Test System: AMES SALMONELLA TYPHIMURIUM, Strain/Indicator: TA98(NR), Metabolic Activation: NONE): active; positive
mutagenic call (Test System: AMES SALMONELLA TYPHIMURIUM, Strain/Indicator: TA98(NR), Metabolic Activation: RAT, LIVER, S-9, AROCLOR 1254): active; positive
mutagenic call (Test System: AMES SALMONELLA TYPHIMURIUM, Strain/Indicator: TA98, Metabolic Activation: NONE): active; positive
mutagenic call (Test System: AMES SALMONELLA TYPHIMURIUM, Strain/Indicator: TA98, Metabolic Activation: RAT, LIVER, S-9, AROCLOR 1254): active; positive

O=C1c2ccc3ccccc3c2-c2c1ccc1ccccc21
mutagenic call [2]: inactive; negative
mutagenic call [3]: active; positive
mutagenic call [4]: inactive; negative
mutagenic call [5]: active; positive

CC(=O)N(Cl)c1ccc2c(c1)Cc1ccccc1-2
mutagenic call [3]: active; positive

Nc1ccc2cccc3c2c1-c1ccccc1-3
mutagenic call (Test System: AMES SALMONELLA TYPHIMURIUM, Strain/Indicator: TA98, Metabolic Activation: RAT, LIVER, S-9, AROCLOR 1254 (2 OR 4%), Method: STANDARD PLATE): active; positive
mutagenic call (Test System: AMES SALMONELLA TYPHIMURIUM, Strain/Indicator: TA100, Metabolic Activation: RAT, LIVER, S-9, AROCLOR 1254 (4%), Method: STANDARD PLATE): active; positive
mutagenic call (Test System: AMES SALMONELLA TYPHIMURIUM, Strain/Indicator: TA1535, Metabolic Activation: RAT, LIVER, S-9, AROCLOR 1254 (4%), Method: STANDARD PLATE): inactive; negative
mutagenic call (Test System: AMES SALMONELLA TYPHIMURIUM, Strain/Indicator: TA1537, Metabolic Activation: RAT, LIVER, S-9, AROCLOR 1254 (4%), Method: STANDARD PLATE): active; positive

O=C/C=C/C=C\c1ccc([N+](=O)[O-])cc1
mutagenic call (Test System: AMES SALMONELLA TYPHIMURIUM, Strain/Indicator: 98(NR), Metabolic Activation: HAMSTER, LIVER, S-9, AROCLOR 1254, Method: STANDARD PLATE): active; positive
mutagenic call (Test System: AMES SALMONELLA TYPHIMURIUM, Strain/Indicator: 98(NR), Metabolic Activation: NONE, Method: STANDARD PLATE): active; positive
mutagenic call (Test System: AMES SALMONELLA TYPHIMURIUM, Strain/Indicator: 98(NR), Metabolic Activation: RAT, LIVER, S-9, AROCLOR 1254, Method: STANDARD PLATE): active; positive
mutagenic call (Test System: AMES SALMONELLA TYPHIMURIUM, Strain/Indicator: 100(NR), Metabolic Activation: HAMSTER, LIVER, S-9, AROCLOR 1254, Method: STANDARD PLATE): active; positive
mutagenic call (Test System: AMES SALMONELLA TYPHIMURIUM, Strain/Indicator: 100(NR), Metabolic Activation: NONE, Method: STANDARD PLATE): active; positive
mutagenic call (Test System: AMES SALMONELLA TYPHIMURIUM, Strain/Indicator: 100(NR), Metabolic Activation: RAT, LIVER, S-9, AROCLOR 1254, Method: STANDARD PLATE): active; positive
mutagenic call (Test System: AMES SALMONELLA TYPHIMURIUM, Strain/Indicator: TA98, Metabolic Activation: HAMSTER, LIVER, S-9, AROCLOR 1254, Method: STANDARD PLATE): active; positive
mutagenic call [2]: active; positive
mutagenic call [3]: active; positive
mutagenic call (Test System: AMES SALMONELLA TYPHIMURIUM, Strain/Indicator: TA100, Metabolic Activation: HAMSTER, LIVER, S-9, AROCLOR 1254, Method: STANDARD PLATE): active; positive
mutagenic call [4]: active; positive
mutagenic call [5]: active; positive
mutagenic call (Test System: AMES SALMONELLA TYPHIMURIUM, Strain/Indicator: TA1535, Metabolic Activation: HAMSTER, LIVER, S-9, AROCLOR 1254, Method: STANDARD PLATE): active; positive
mutagenic call [1]: active; positive
mutagenic call (Test System: AMES SALMONELLA TYPHIMURIUM, Strain/Indicator: TA1535, Metabolic Activation: RAT, LIVER, S-9, AROCLOR 1254, Method: STANDARD PLATE): active; positive
mutagenic call [6]: active; positive
mutagenic call (Test System: AMES SALMONELLA TYPHIMURIUM, Strain/Indicator: TA1537, Metabolic Activation: RAT, LIVER, S-9, AROCLOR 1254, Method: STANDARD PLATE): active; positive
mutagenic call (Test System: Mouse lymphoma, Strain/Indicator: L5178Y (tk+/tk-), Metabolic Activation: None, Method: Suspension/plate): active; equivocal (previous evaluation positive)
mutagenic call (Test System: Mouse lymphoma, Strain/Indicator: L5178Y (tk+/tk-), Metabolic Activation: Rat, Liver, S-9, Aroclor 1254, Method: Suspension/plate): inactive; negative

CCN(CCCl)CCCNc1c2ccccc2nc2c1ccc1ccccc12
mutagenic call [2]: active; positive
mutagenic call [4]: active; positive
mutagenic call [1]: inactive; negative
mutagenic call (Test System: AMES SALMONELLA TYPHIMURIUM, Strain/Indicator: TA1536, Metabolic Activation: NONE, Method: STANDARD PLATE): active; positive
mutagenic call [6]: active; positive
mutagenic call (Test System: AMES SALMONELLA TYPHIMURIUM, Strain/Indicator: TA1538, Metabolic Activation: NONE, Method: STANDARD PLATE): active; positive
mutagenic call (Test System: CHO/HGPRT, Strain/Indicator: CHO-K1-BH4, Metabolic Activation: NONE, Method: STANDARD PLATE): active; positive

OCc1ccc2c(CO)c3ccc4ccccc4c3nc2c1
mutagenic call [5]: inactive; negative

O=[N+]([O-])C(Br)(Br)Br
mutagenic call (Test System: AMES SALMONELLA TYPHIMURIUM, Strain/Indicator: TA98, Metabolic Activation: NONE, Method: PREINCUBATION): inactive; negative
mutagenic call (Test System: AMES SALMONELLA TYPHIMURIUM, Strain/Indicator: TA100, Metabolic Activation: HAMSTER, LIVER, S-9, AROCLOR 1254 (5%), Method: PREINCUBATION): inactive; negative
mutagenic call (Test System: AMES SALMONELLA TYPHIMURIUM, Strain/Indicator: TA100, Metabolic Activation: HAMSTER, LIVER, S-9, AROCLOR 1254 (10 OR 30%), Method: PREINCUBATION): inactive; negative
mutagenic call (Test System: AMES SALMONELLA TYPHIMURIUM, Strain/Indicator: TA100, Metabolic Activation: HAMSTER, LIVER, S-9, AROCLOR 1254 (30%), Method: PREINCUBATION): active; positive
mutagenic call (Test System: AMES SALMONELLA TYPHIMURIUM, Strain/Indicator: TA100, Metabolic Activation: NONE, Method: PREINCUBATION): inactive; negative
mutagenic call (Test System: AMES SALMONELLA TYPHIMURIUM, Strain/Indicator: TA100, Metabolic Activation: RAT, LIVER, S-9, AROCLOR 1254 (5%), Method: PREINCUBATION): inactive; negative
mutagenic call (Test System: AMES SALMONELLA TYPHIMURIUM, Strain/Indicator: TA100, Metabolic Activation: RAT, LIVER, S-9, AROCLOR 1254 (10%), Method: PREINCUBATION): inactive; negative
mutagenic call (Test System: AMES SALMONELLA TYPHIMURIUM, Strain/Indicator: TA1535, Metabolic Activation: RAT, LIVER, S-9, AROCLOR 1254 (5%), Method: PREINCUBATION): inactive; negative
mutagenic call (Test System: Ames Salmonella typhimurium, Strain/Indicator: RSJ100, Metabolic Activation: None, Method: Standard plate): inactive; negative
mutagenic call (Test System: Ames Salmonella typhimurium, Strain/Indicator: RSJ 100, Metabolic Activation: Rat, Liver, S-9, Aroclor, Method: Standard plate): inactive; negative
mutagenic call (Test System: Ames Salmonella typhimurium, Strain/Indicator: RSJ100, Metabolic Activation: Rat, Liver, S-9, Aroclor, Method: Standard plate): inactive; negative
mutagenic call (Test System: Ames Salmonella typhimurium, Strain/Indicator: TA98, Metabolic Activation: None, Method: Standard plate): inactive; negative
mutagenic call (Test System: Ames Salmonella typhimurium, Strain/Indicator: TA98, Metabolic Activation: Rat, Liver, S-9, Aroclor, Method: Standard plate): inactive; negative
mutagenic call (Test System: Ames Salmonella typhimurium, Strain/Indicator: TA100, Metabolic Activation: None, Method: Standard plate): inactive; negative
mutagenic call (Test System: Ames Salmonella typhimurium, Strain/Indicator: TA100, Metabolic Activation: Rat, Liver, S-9, Aroclor, Method: Standard plate): inactive; negative
mutagenic call (Test System: Ames Salmonella typhimurium, Strain/Indicator: TA104, Metabolic Activation: None, Method: Standard plate): inactive; negative
mutagenic call (Test System: Ames Salmonella typhimurium, Strain/Indicator: TA104, Metabolic Activation: Rat, Liver, S-9, Aroclor, Method: Standard plate): inactive; negative
mutagenic call (Test System: Ames Salmonella typhimurium, Strain/Indicator: TPT100, Metabolic Activation: None, Method: Standard plate): inactive; negative

Cc1ccc2ccc3ccccc3c2c1C
mutagenic call [2]: inactive; negative
mutagenic call [3]: inactive; negative
mutagenic call [4]: inactive; negative
mutagenic call [5]: inactive; negative
